From article PMC3169566, “Rationally Designed Interfacial Peptides Are Efficient In Vitro Inhibitors of HIV-1 Capsid Assembly with Antiviral Activity” (PLoS ONE, 2011)
Peptide text beside a SMILES is read from it.

How the values were obtained:
[1] = Solubility under the conditions of the NMR experiments; type: physicochemical; details: aqueous buffer, long incubations at a relatively high temperature, 50 mM phosphate buffer pH 7.0, read-out: Concentration at which the peptide remained fully soluble
Method: NMR spectra were acquired at 20°C on a Bruker Avance DRX-500 spectrometer (Bruker GmbH, Germany) equipped with a triple resonance probe and z-pulse field gradients. Sodium trimethylsilyl [2,2,3,3-^2H4] propionate (Sigma) was used as the internal chemical shift reference in the homonuclear experiments. All experiments were carried out in 50 mM phosphate buffer pH 7.0. Assignments of the heteronuclear single quantum coherence (HSQC) NMR spectra were those previously obtained for the monomeric CTD [43], [44].
We first analyzed whether the CAC1-derived peptides CAC1C and CAC1M had any tendency to self-associate. […] The hydrodynamic radius (Rh) of the three peptides was similar (Table 1).

[2] = target: T1, CTD (C-terminal domain of HIV-1 capsid protein CA) (Human immunodeficiency virus type 1 group M subtype B, UniProt P04591); assay: CTD binding by fluorescence titration; details: 20 µM wild-type dimeric CTD, 25°C, 50 mM phosphate buffer pH 7.0, 1:1 binding isotherm, read-out: CTD-binding K D
T1 construct: CA protein and the isolated CTD (either unlabelled or labelled) were purified as described previously; made in house
Method: Spectra were collected on a Cary Eclipse spectrofluorimeter (Varian, CA, USA). A concentration of 20 µM CTD and increasing peptide concentrations were used for titration experiments carried out at 25°C in 50 mM phosphate buffer pH 7.0. Excitation wavelength was 280 nm or 295 nm, and emission fluorescence was collected between 300 nm and 400 nm. The excitation and emission slits were set to 5 nm. The response time was 1 s. The dissociation constant of each complex was calculated by fitting the changes observed either in: (i) the fluorescence intensity at a particular wavelength; or (ii) the value of the average energy <λ> [42] for a fixed CTD concentration versus the concentration of added peptide as described.

HIV-1 capsid protein CA = target: T2, HIV-1 capsid protein CA (Human immunodeficiency virus type 1 group M subtype B, UniProt P04591); assay: CA polymerization in vitro (turbidity at 350 nm) with Ficoll-70 crowding agent; type: biochemical; details: 20 µM CA
T2 construct: CA protein and the isolated CTD (either unlabelled or labelled) were purified as described previously; made in house
Method: Assembly reactions were carried out as described previously, [53] with some modifications. In general, the polymerization mixtures contained 50 mM sodium phosphate buffer pH 7.4, 2.25 M NaCl, 20 µM CA, and 100 g/l Ficoll-70 (GE HealthCare) as a macromolecular crowding agent. Where indicated, Ficoll-70 was omitted and the final CA concentration was raised to 46 µM. The experiments were initiated by introducing an appropriate volume of a CA solution in 50 mM phosphate buffer into a spectrophotometer cuvette (10-mm pathlength, 20 mm^2 internal section), and the assembly reaction was triggered by adding the appropriate volume of a solution containing 4 M NaCl, 179 g/l Ficoll-70 in 50 mM sodium phosphate buffer pH 7.4, to get the final concentrations desired for each component in a final volume of 500 µl, followed by rapid mixing by repeated inversion of the cell. The pH of the final reaction mixture was checked in a test sample. For inhibition assays, CA was mixed with the appropriate amounts of the peptides, and incubated for 30 minutes before triggering the reaction as indicated above. The time-dependent increase in the optical density at 350 nm as a measure of the light scattered by the assembled particles was monitored at 25°C using a UV-1603 spectrophotometer (Shimadzu, Japan), with data points collected every six seconds. Traces of the variation in the turbidity were analyzed as described previously, [53].

U87-CD4-CXCR4 cells [3] = details: without cell-penetrating peptide; cited from earlier work
U87-CD4-CXCR4 cells [4] = assay: Transport of peptides into cells (fluorescence microscopy, flow cytometry); type: cell-based, Human; details: rhodamine-labelled peptides in complex with Chariot 1:1, 3 h at 37°C
Method: To transport the peptides into NB324K or U87-CD4-CXCR4 cells a commercial cell-penetrating peptide (Chariot, Active Motif) was used, according to the manufacturer's recommendations. For fluorescence microscopy analyses, Chariot-peptide binding was accomplished by incubating a mixture containing between 5 µg and 50 µg of either FITC-labelled peptide or rhodamine-labelled peptide and the Chariot peptide at a 1∶1 molar ratio in 100 µl aliquots. Each 100 µl aliquot of the preincubated mixture was added to one well of a 24-well plate containing NB324K or U87-CD4-CXCR4 seeded the previous day (5·10^4 and 1.5·10^5 cells/well, respectively) and 100 µl of serum-free DMEM medium were added. The cells were incubated for 1–3 h, 800 µl DMEM containing 10% FBS were added, and incubation was continued for 1 h. Cells were fixed with a 1∶1 methanol∶acetone solution, their nucleus were stained with 4′,6-diamidino-2-phenylindol dihydrochloride (DAPI, Calbiochem), and cells were examined and imaged using an Axiovert200 (Zeiss) fluorescence microscope and/or a LSM-510 (Zeiss) confocal fluorescence microscope.
FITC-labelled peptides were transported into NB324K or U87-CD4-CXCR4 cells as described above. […] The resuspended cells were analyzed in a FACSCalibur flow cytometer (Becton Dickinson, USA).

HIV-1 strain HXB2 = assay: Inhibition of HIV-1 production and infection in cultured cells (p24 antigen); type: cell-based; details: U87-CD4-CXCR4 cells, Chariot-mediated transport
Method: U87-CD4-CXCR4 cells from cultured monolayers were collected using 0.25% trypsin and resuspended in DMEM supplemented with 10% FBS (without antibiotics). Cells were seeded in 96-well plates at a density of 3.5×10^4 cells/well and incubated for 24 h. Then, the cells were incubated as described above with mixtures of the corresponding peptides and the Chariot peptide at the appropriate concentrations. After three hours of incubation, the cells were washed with PBS and infected with HIV-1 at a multiplicity of infection of 0.0015 (0.0015 TCID50/cell). After incubation for 2 h at 37°C, the cells were washed with PBS and DMEM supplemented with 10% FBS, 0.5 mg/ml geneticin and 1 µg/ml puromycin were added, and the infected cells were further incubated at 37°C. Viral replication was quantified by measuring HIV-1 CA (p24 antigen) production in the culture supernatant 72 h after infection, using an enzyme-linked immunoassay (INNOTEST HIV-antigen, Innogenetics).

[5] = peptide:CA molar ratio of 5, 100 g/l Ficoll-70

CSCC[C@H](NC(=O)[C@H](Cc1c[nH]c2ccccc12)NC(=O)[C@H](C)NC(=O)[C@H](CCCCN)NC(=O)[C@@H](NC(=O)[C@H](CO)NC(=O)[C@H](CO)NC(=O)[C@H](CO)NC(=O)[C@H](C)NC(=O)[C@H](CO)NC(=O)[C@@H](N)CCC(=O)O)C(C)C)C(=O)N[C@H](C(=O)N[C@@H](CCC(=O)O)C(=O)N[C@H](C(=O)N[C@@H](CC(C)C)C(=O)N[C@@H](CC(C)C)C(=O)N[C@H](C(=O)N[C@@H](CCC(N)=O)C(=O)N[C@@H](CC(N)=O)C(=O)N[C@@H](C)C(N)=O)C(C)C)[C@@H](C)O)[C@@H](C)O [CAC1C] (H-ESASSSVKAWMTETLLVQNA-NH2) showed a solubility [1] of at least 200 µM and a Kd [2] of 19 ± 8 µM.
In the case of ITFEDLLDYYGP [CAI], the “Inhibition of in vitro assembly of HIV-1 capsid-like particles, single inhibitor” value (HIV-1 capsid protein CA; 100 g/l Ficoll-70, 2.25 M NaCl, pH 7.4, 25°C, 30 min preincubation, inhibitor:CA molar ratios up to 10 (CAI 0.1-0.5)) is given as “very efficient”, the “Ability of the peptide to penetrate cells” value (U87-CD4-CXCR4 cells [3]) is given as “unable to penetrate cells” and the “Chariot-mediated transport of peptides into HIV-1-susceptible cells” value (U87-CD4-CXCR4 cells [4]) is given as “had been achieved”. For the same compound, the “Inhibitory activity of single peptides on HIV-1 production ex vivo” value (HIV-1 strain HXB2; MOI 0.0015, p24 at 72 h, H4 tested up to close to 2 mM) was “at most a weak inhibitory activity” and the “Peptide concentration required for weak inhibitory activity on HIV-1 production ex vivo” value (HIV-1 strain HXB2; p24 at 72 h) was over 1 mM.
In the case of CSCC[C@H](NC(=O)[C@H](Cc1c[nH]c2ccccc12)NC(=O)[C@H](C)NC(=O)[C@H](CCCCN)NC(=O)[C@@H](NC(=O)[C@H](CO)NC(=O)[C@H](CO)NC(=O)[C@H](C)NC(=O)[C@H](C)NC(=O)[C@H](CO)NC(=O)[C@H](CCC(=O)O)NC(=O)[C@@H](N)CO)C(C)C)C(=O)N[C@H](C(=O)N[C@@H](CCC(=O)O)C(=O)N[C@H](C(=O)N[C@@H](CC(C)C)C(=O)N[C@@H](CC(C)C)C(=O)N[C@H](C(=O)N[C@@H](C)C(=O)N[C@@H](CC(N)=O)C(=O)N[C@H](C(=O)N[C@@H](CO)C(=O)N[C@@H](CO)C(N)=O)[C@@H](C)O)C(C)C)[C@@H](C)O)[C@@H](C)O [CAC1M] (H-SESAASSVKAWMTETLLVANTSS-NH2), the “Higher reduction in polymerization rate compared to CAC1” value (HIV-1 capsid protein CA; [5]) is reported as about 30%, the “Higher reduction in total capsid production compared to CAC1” value (HIV-1 capsid protein CA; [5]) is reported as “about 20%” and the “Chariot-mediated transport of peptides into HIV-1-susceptible cells” value (U87-CD4-CXCR4 cells [4]) is reported as “had been achieved”. For the same compound, the solubility [1] was at least 200 µM and the Kd [2] was 8 ± 1 µM.
